We go through two compounds from patent US8003630B2, “Combinatorial therapies for the treatment of neoplasias using the opioid growth factor receptor” (The Penn State Research Foundation, priority 2004, dated 2011).

Marks after values point to notes of the source that are not given here.

The subject of one series is SCC-1 cells. Kind of series: Necrosis, trypan blue positivity of SCC-1 cells. It is filed as cell-based, human. To be noted: SCC-1 cultures or supernatants. On the procedure:
Cell number was recorded either by using the MTS proliferation bioassay (Cell Titer 96 One Solution, Promega, Madison, Wis.) and measuring absorbency after 4 hr on a Biorad (Model 3550) plate reader at 490 nm with a 750 nm background absorbance screening, or by directly counting cells. The MTS assay utilized 10 wells/treatment. For manual counts, cells were harvested by trypsinization with 0.25% trypsin/0.53 mM EDTA, centrif uiged, and counted with a hemacytometer. Cell viability was determined by trypan blue staining. At least two aliquots per well, and 4-10 wells/treatment, were counted at each time for manual counting.

Another series relates to MIA PaCa-2 cells. Kind of series: MIA PaCa-2 xenograft in nude mice, tumor appearance, growth and termination day measurements (Example 7). It is filed as in vivo, BALB/c-nu/nu nude mice. The text has this: Male 4 week old BALB/c-nu/nu nude mice purchased from Harlan Laboratories (Indianapolis, Ind.) were housed in pathogen-free isolators in the Department of Comparative Medicine at the Penn State University College of Medicine. All procedures were approved by the IACUC committee of the Penn State University College of Medicine and conformed to the guidelines established by NIH. Mice were allowed 48 hr to acclimate prior to beginning experimentation.
MIA PaCa-2 cells (10^6 cells/mouse) were inoculated into nude mice by subcutaneous injection into the right scapular region; mice were not anesthetized for this procedure.
All drugs were dissolved in saline and prepared weekly. Injections were given within 1 hr of tumor cell inoculation.
Mice were weighed weekly throughout the experiment, and observed daily for the presence of tumors. The latency for a visible tumor to appear, and the time until tumors were measurable (i.e., 62.5 mm^3) were recorded. Tumors were measured using calipers every day after tumor appearance. Tumor volume was calculated using the formula w^2×1×π/6, where the length is the longest dimension, and width is the dimension perpendicular to length.
According to IACUC guidelines, mice were terminated when tumors became ulcerated, or tumors grew to 2 cm in diameter. Forty-five days following tumor cell inoculation, all mice were euthanized by an overdose of sodium pentobarbital (100 mg/kg) and killed by cervical dislocation; mice (with tumors) were weighed. Tumors and spleens were removed and weighed, and the lymph nodes, liver, and spleen examined for metastases.

In the next series the test system is MiaPaCa-2 cells. The experiment in a line: Gemcitabine and OGF cell cycle phase analysis by flow cytometry. The format is cell-based, human. To be noted: 2 to 24 hours after OGF exposure. Background: A flow cytometer gives signals particle by particle.

Experimental for MiaPaCa-2 cells: To investigate the exact cell cycle phase where gemcitabine and/or OGF exerted their effects, flow cytometry was performed.

Consider `CC(=O)O[C@H]1C(=O)[C@@]2(C)[C@H]([C@H](OC(=O)c3ccccc3)[C@]3(O)C[C@H](OC(=O)[C@H](O)[C@@H](NC(=O)c4ccccc4)c4ccccc4)C(C)=C1C3(C)C)[C@]1(OC(C)=O)CO[C@@H]1C[C@@H]2O` [paclitaxel], for which the “necrosis, number of trypan blue positive cells versus control” value with SCC-1 cells is listed as “No differences in necrosis”.
Consider [Met^5]-enkephalin [OGF], for which the “day from which tumor volume differed from controls” value in the series on MIA PaCa-2 cells (at least p<0.05) was found to be 14 days. Further, the “mice with measurable tumors” value with MIA PaCa-2 cells (day 10) is reported as 60%. In addition, the “tumor volumes decreased from control values” with MIA PaCa-2 cells (day 45) is given as 46%. In the series with MIA PaCa-2 cells (day 45, means ± SEM), the “Tumor Volume, mm^3” value is on record as 4849 ± 490*** mm^3 and the “Tumor Weight” value stood at 3.5 ± 0.5 g. Moreover, in the series with MIA PaCa-2 cells (means ± SEM), the “Latency to measurable tumor” value was 14.2 ± 0.8 days and the “Latency to visible tumor” value was determined as 10.7 ± 0.8 days. In addition, the “Tumor Incidence, day 16” value in the series on MIA PaCa-2 cells (mice with tumor/N) is 10/10. Further, in the series on MIA PaCa-2 cells (mice with tumor/N, OGF 10 mg/kg daily and/or gemcitabine 120 mg/kg every 3 days i.p.), the “Tumor Incidence, day 10” value was 6/10. Besides, in the series with MIA PaCa-2 cells (termination day (day 45)), the “weights of tumors decreased from control levels” value was found to be 36%. For the same compound, in the series on MiaPaCa-2 cells, the “increase of cells in the G0/G1 phase of the cell cycle” value is recorded as “no significant increases into the G0/G1 phase”.
